Test results: patent US4524073A, “β-Lactam compounds” (Beecham Group p.1.c., priority 1982, dated 1985)
≈ marks a conversion by molar mass, not a printed value.

Key:
S.aureus Russell = experiment: Antibacterial activity, S. aureus Russell (Table 2); type: cell-based; settings: Staphylococcus aureus, compound alone
E.coli JT39 = experiment: Antibacterial activity, E. coli JT39 (Table 2); type: cell-based; settings: Escherichia coli, compound alone

| Structure (SMILES) | MIC (S.aureus Russell) [µg/mL] | MIC (E.coli JT39) [µg/mL] |
| --- | --- | --- |
| CCOC(CCCNC/C=C1\O[C@@H]2CC(=O)N2[C@H]1C(=O)O)OCC [Example 19, 9-N-(4,4-Diethoxybutyl)amino deoxyclavulanic acid] | 16 (≈ 46.7 µM) | 31.2 (≈ 91.1 µM) |
| O=C(O)[C@H]1/C(=C/CNCCCl)O[C@@H]2CC(=O)N21 [Example 2, 9-N-(2-Chloroethyl)amino-deoxyclavulanic acid] | 8 (≈ 30.7 µM) | 31.2 (≈ 120 µM) |
| CC(=O)OCCCCNC/C=C1\O[C@@H]2CC(=O)N2[C@H]1C(=O)O [Example 20, 9-N-(4-Acetoxybutyl)aminodeoxyclavulanic acid] | 16 (≈ 51.2 µM) | 31.2 (≈ 99.9 µM) |
| CS(=O)(=O)NCCCNC/C=C1\O[C@@H]2CC(=O)N2[C@H]1C(=O)O [Example 13, 9-N-(3-Methylsulphonamidopropyl)aminodeoxyclavulanic acid] | 16 (≈ 48 µM) | 31.2 (≈ 93.6 µM) |
| O=C(O)[C@H]1/C(=C/CNCC(O)c2ccccc2)O[C@@H]2CC(=O)N21 (stereo partly shown) [Example 30, 9-N-(2-Hydroxy-2-phenylethyl)aminodeoxyclavulanic acid] | 2 (≈ 6.28 µM) | 31.2 (≈ 98 µM) |
| CN(C)C(=O)NCCNC/C=C1\O[C@@H]2CC(=O)N2[C@H]1C(=O)O [Example 22 (2nd compound), 9-N-(N'N'-dimethylureido)ethylaminodeoxyclavulanic acid] | 4 (≈ 12.8 µM) | 62.5 (≈ 200 µM) |
| NC(=O)CCNC/C=C1\O[C@@H]2CC(=O)N2[C@H]1C(=O)O [Example 28, 9-N-(2-carbamoylethyl)aminodeoxyclavulanic acid] | 16 (≈ 59.4 µM) | 16 (≈ 59.4 µM) |
| O=C(O)[C@H]1/C(=C/CNCCCn2ccnc2)O[C@@H]2CC(=O)N21 [Example 18] | 8 (≈ 26.1 µM) | 31.2 (≈ 102 µM) |
| O=C(O)[C@H]1/C(=C/CNCCc2ccccn2)O[C@@H]2CC(=O)N21 [Example 4, 9-N-(2-Pyrid-2'-ylethyl)aminodeoxyclavulanic acid] | 4 (≈ 13.2 µM) | 31.2 (≈ 103 µM) |
| O=C(O)[C@H]1/C(=C/CNCCc2ccncc2)O[C@@H]2CC(=O)N21 [Example 5, 9-N-(2-Pyrid-4'-ylethyl)amino deoxyclavulanic acid] | 8 (≈ 26.4 µM) | 31.2 (≈ 103 µM) |
| O=C(O)[C@H]1/C(=C/CNCCc2c[nH]c3ccccc23)O[C@@H]2CC(=O)N21 [Example 26, 9-N-(2-Indol-3'-ylethyl)aminodeoxyclavulanic acid] | ≤ 0.5 | 8 (≈ 23.4 µM) |

Next, values leading:

| MIC (S.aureus Russell) [µg/mL] | MIC (E.coli JT39) [µg/mL] | Structure (SMILES) |
| --- | --- | --- |
| 8 (≈ 25.1 µM) | 31.2 (≈ 97.7 µM) | CS(=O)(=O)NCCNC/C=C1\O[C@@H]2CC(=O)N2[C@H]1C(=O)O [Example 12, 9-N-(2-methylsulphonamidoethyl)aminodeoxyclavulanic acid] |
| 4 (≈ 12.2 µM) | 8 (≈ 24.4 µM) | CC(C)(CCCNC/C=C1\O[C@@H]2CC(=O)N2[C@H]1C(=O)O)[N+](=O)[O-] [Example 21, 9-N-[4-Methyl-4-nitropentyl]aminodeoxyclavulanic acid] |
| 8 (≈ 27.9 µM) | 16 (≈ 55.9 µM) | COC(CNC/C=C1\O[C@@H]2CC(=O)N2[C@H]1C(=O)O)OC [Example 1, 9-N-(2,2-Dimethoxyethyl)amino deoxyclavulanate] |
| 4 (≈ 12.6 µM) | 16 (≈ 50.4 µM) | O=C(O)[C@H]1/C(=C/CNCCNc2ccccc2)O[C@@H]2CC(=O)N21 [Example 29, 9-N-(2-Phenylaminoethyl)aminodeoxyclavulanic acid] |
| 2 (≈ 5.57 µM) | 8 (≈ 22.3 µM) | O=C(CCNC/C=C1\O[C@@H]2CC(=O)N2[C@H]1C(=O)O)NCc1ccccc1 [Example 25, 9-N-(3-N-Benzylcarbamoyleth-1-yl)aminodeoxyclavulanic acid] |
| 16 (≈ 43.7 µM) | 31.2 (≈ 85.2 µM) | O=C(O)[C@H]1/C(=C/CNCCS(=O)(=O)c2ccccc2)O[C@@H]2CC(=O)N21 [Example 23, 9-N-[2-(phenylsulphonyl)ethyl]aminodeoxyclavulanic acid] |
